Positions count from the first letter of the chain named. “And” between values parts separate entries of the source, which are not always exact repeats. Equal values may be shown once. Read-outs that look alike come from different tables or passages of the source.
Key:
[1] = Estimated unbound maximum hepatic inlet concentration used for the static model
Experimental: (8) [I]h=fu,p×Cmax+Fa ×Fg×Ka×Dose/Qh ×Rb
For the static mechanistic modeling, hepatic blood flow (Qh) and enterocyte blood flow (Qen) were set to 1500 mL/min and 300 mL/min, respectively, and the blood-to-plasma concentration ratio (RB) was set to 0.4 [55].
C௠௔௫ ,௛௘௣௔௧௜௖ ௜௡௟௘௧ ,௨ ൌ f௨,௣ ൈ ቀC௠௔௫ ൅ ிೌ ൈ ி೒ ൈ ௄ೌ ൈ஽௢௦௘ொ೓ ൈ ோ್ቁ, where fu,p (unbound fraction in plasma) wa s set

[2] = cited from earlier work
UGT2B7 [3] = biological target: T1, UGT2B7 (Homo sapiens, UniProt P16662, Y268H); assay: Inhibition screening of morphine glucuronidation in rUGT2B7-overexpressing HEK293 cell microsomes; conditions: rUGT-overexpressing microsomes and HLM
T1 sequence (P16662 24-529 Y268H): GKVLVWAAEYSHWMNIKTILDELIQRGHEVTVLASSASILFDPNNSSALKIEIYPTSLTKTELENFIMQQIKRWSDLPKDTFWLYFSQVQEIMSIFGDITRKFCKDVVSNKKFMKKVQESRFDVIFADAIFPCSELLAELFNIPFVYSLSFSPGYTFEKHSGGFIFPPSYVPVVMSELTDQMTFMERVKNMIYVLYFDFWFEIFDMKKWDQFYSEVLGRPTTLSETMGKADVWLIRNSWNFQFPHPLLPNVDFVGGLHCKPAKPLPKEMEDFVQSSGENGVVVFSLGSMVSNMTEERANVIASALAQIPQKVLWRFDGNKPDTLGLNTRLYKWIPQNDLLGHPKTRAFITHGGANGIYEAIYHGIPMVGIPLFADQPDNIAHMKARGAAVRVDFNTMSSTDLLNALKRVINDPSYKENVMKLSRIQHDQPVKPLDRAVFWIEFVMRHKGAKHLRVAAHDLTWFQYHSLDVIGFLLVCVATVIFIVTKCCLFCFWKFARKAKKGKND

UGT2B7 [4] = biological target: T2, UGT2B7 (Homo sapiens, UniProt P16662); assay: Inhibition screening of morphine glucuronidation in pooled human liver microsomes (HLM); conditions: 100 µM cannabinoid
T2 sequence (P16662 24-529): T1 sequence (P16662 24-529 Y268H) with H245Y

UGT2B7 [5] = biological target: T1, UGT2B7; assay: IC50 determination, morphine glucuronidation in rUGT2B7-overexpressing HEK293 cell microsomes
UGT2B7 [6] = biological target: T2, UGT2B7; assay: IC50 determination and calculated Ki, morphine glucuronidation in HLM
UGT2B7 [7] = biological target: T2, UGT2B7
UGT2B7 [8] = biological target: T1, UGT2B7
UGT2B7 [9] = biological target: T1, UGT2B7; assay: in vitro
[10] = cited from earlier work; for Cmax,u: after consumption; for ka (first-order absorption rate constant): ref Cox et al., 2019 [45]
UGT2B7 [11] = biological target: T2, UGT2B7; assay: in vitro; conditions: human liver microsomes, probe morphine […] (morphine-6-glucuronide formation)
UGT2B7 [12] = system: UGT2B7; set-up: method as in PMID 9715839; conditions: coadministration of zidovudine (AZT) and methadone; cited from earlier work
[13] = read-out: Cmax,hepatic inlet,u, THC dose 20 mg, Oral, estimated from Cmax of Bansal et al., 2022 [56]
[14] = read-out: Cmax,hepatic inlet,u, THC dose 25 mg, Inhalation, estimated from Cmax of Bansal et al., 2022 [56]
[15] = read-out: Cmax,hepatic inlet,u, THC dose 70 mg, Inhalation, estimated from Cmax of Bansal et al., 2022 [56]
[16] = read-out: Cmax,hepatic inlet,u, THC dose 100 mg, Inhalation, estimated from Cmax of Bansal et al., 2022 [56]
[17] = read-out: Cmax,hepatic inlet,u, THC dose 130 mg, Oral, estimated from Cmax of Bansal et al., 2022 [56]
[18] = read-out: Cmax,hepatic inlet,u, THC dose 160 mg, Oral, estimated from Cmax of Bansal et al., 2022 [56]
[19] = read-out: IC50,u, Morphine-3-Glucuronide formation, corrected for non-specific binding with fu,inc (11-OH-THC fu,inc as surrogate for 11-COOH-THC and 7-OH-CBD)
[20] = read-out: IC50,u, Morphine-6-Glucuronide formation, corrected for non-specific binding with fu,inc (11-OH-THC fu,inc as surrogate for 11-COOH-THC and 7-OH-CBD)
[21] = read-out: Calculated Ki, Morphine-3-Glucuronide, Ki=IC50/2 assuming competitive inhibition
[22] = read-out: Calculated Ki, Morphine-6-Glucuronide, Ki=IC50/2 assuming competitive inhibition
[23] = read-out: Calculated Ki,u, Morphine-3-Glucuronide, Ki corrected with fu,inc
[24] = read-out: Calculated Ki,u, Morphine-6-Glucuronide, Ki corrected with fu,inc
[25] = microsomes of HEK293 cells overexpressing recombinant UGT2B7, probe morphine […] (morphine-3-glucuronide formation)
[26] = microsomes of HEK293 cells overexpressing recombinant UGT2B7, probe morphine […] (morphine-6-glucuronide formation)

11-hydroxy-Δ^9-tetrahydrocannabinol [11-OH-THC]
Cmax [1, 13]: 20 nM
Cmax [1, 14]: 10 nM
Cmax [1, 15]: 30 nM
Cmax [1, 16]: 50 nM
Cmax [1, 17]: 100 nM
Cmax [1, 18]: 120 nM
unbound fraction (fu,inc) ([2]; HLM): 0.094
unbound fraction (fu,inc) ([2]; rUGT-overexpressing microsomes): 0.078
inhibition of UGT2B7-mediated morphine metabolism (overall, in words) (UGT2B7 [3]): strong inhibition
inhibition of M3G and M6G formation in HLM (in words) (UGT2B7 [4]): significant inhibition
IC50 (UGT2B7 [5]; [19]): 0.96 ± 0.27 µM
IC50 (UGT2B7 [5]; [20]): 0.96 ± 0.28 µM
Ki (UGT2B7 [6]; [21]): 8.82 ± 8.42 µM
Ki (UGT2B7 [6]; [22]): 6.61 ± 5.02 µM
Ki (UGT2B7 [6]; [23]): 0.82 ± 0.79 µM
Ki (UGT2B7 [6]; [24]): 0.62 ± 0.47 µM
IC50 (UGT2B7 [6]; [19]): 1.7 ± 1.6 µM
IC50 (UGT2B7 [6]; [20]): 1.2 ± 0.95 µM
IC50 (UGT2B7 [7]): 18 µM and 13 µM
IC50 (UGT2B7 [8]): 12 ± 3.5 µM

C=C(C)[C@@H]1CCC(C(=O)O)=C[C@H]1c1c(O)cc(CCCCC)cc1O [7-COOH-CBD, 7-carboxy-cannabidiol]
inhibition of M3G and M6G formation in HLM (in words) (UGT2B7 [4]): weak to moderate inhibition

C=C(C)[C@@H]1CCC(CO)=C[C@H]1c1c(O)cc(CCCCC)cc1O [7-OH-CBD, 7-hydroxy-cannabidiol]
Cmax ([1]; read-out: Cmax,hepatic inlet,u, CBD dose 70 mg, Oral, estimated from Cmax of Bansal et al., 2022 [56]): 30 nM
Cmax ([1]; read-out: Cmax,hepatic inlet,u, CBD dose 700 mg, Oral, estimated from Cmax of Bansal et al., 2022 [56]): 340 nM
Cmax ([1]; read-out: Cmax,hepatic inlet,u, CBD dose 2000 mg, Oral, estimated from Cmax of Bansal et al., 2022 [56]): 980 nM
inhibition of UGT2B7-mediated morphine metabolism (overall, in words) (UGT2B7 [3]): strong inhibition
inhibition of M3G and M6G formation in HLM (in words) (UGT2B7 [4]): significant inhibition
IC50 (UGT2B7 [5]; [19]): 3 ± 2.1 µM
IC50 (UGT2B7 [5]; [20]): 3 ± 0.7 µM
Ki (UGT2B7 [6]; [21]): 8.59 ± 3.05 µM
Ki (UGT2B7 [6]; [22]): 3.99 ± 2.54 µM
Ki (UGT2B7 [6]; [23]): 0.81 ± 0.29 µM
Ki (UGT2B7 [6]; [24]): 0.38 ± 0.12 µM
IC50 (UGT2B7 [6]; [19]): 1.6 ± 0.57 µM
IC50 (UGT2B7 [6]; [20]): 0.75 ± 0.24 µM
IC50 (UGT2B7 [8]): 38 µM and 39 µM

CCCCCc1cc(O)c2c(c1)OC(C)(C)[C@@H]1CCC(C(=O)O)=C[C@@H]21 [11-COOH-THC, 11-nor-9-carboxy-Δ^9-tetrahydrocannabinol]
Cmax [1, 13]: 190 nM
Cmax [1, 14]: 70 nM
Cmax [1, 15]: 180 nM
Cmax [1, 16]: 260 nM
Cmax [1, 17]: 1220 nM
Cmax [1, 18]: 1500 nM
inhibition of UGT2B7-mediated morphine metabolism (overall, in words) (UGT2B7 [3]): more moderate inhibition
inhibition of M3G and M6G formation in HLM (in words) (UGT2B7 [4]): weak to moderate inhibition
IC50 (UGT2B7 [5]; [19]): 3.7 ± 1.2 µM
IC50 (UGT2B7 [5]; [20]): 4.3 ± 1.2 µM
Ki (UGT2B7 [6]; [21]): 91.6 ± 18.5 µM
Ki (UGT2B7 [6]; [22]): 52.1 ± 8.16 µM
Ki (UGT2B7 [6]; [23]): 8.61 ± 1.74 µM
Ki (UGT2B7 [6]; [24]): 4.89 ± 0.77 µM
IC50 (UGT2B7 [6]; [19]): 17 ± 3.5 µM
IC50 (UGT2B7 [6]; [20]): 9.8 ± 1.5 µM
IC50 (UGT2B7 [7]): 184 µM and 104 µM
IC50 (UGT2B7 [8]): 47 µM and 55 µM

C=C(C)[C@@H]1CCC(C)=C[C@H]1c1c(O)cc(CCCCC)cc1O [CBD, cannabidiol, reference compound]
Cmax ([1]; human, hepatic inlet (unbound), inhaled or intranasal, 19 mg): 350 nM
Cmax ([1]; human, hepatic inlet (unbound), po, 70 mg): 90 nM
Cmax ([1]; human, hepatic inlet (unbound), po, 700 mg): 890 nM
Cmax ([1]; human, hepatic inlet (unbound), po, 2000 mg): 2540 nM
inhibition of UGT2B7-mediated morphine metabolism (overall, in words) (UGT2B7 [3]): strong inhibition
inhibition at 100 µM (UGT2B7 [9]; [25]): 99%
inhibition at 100 µM (UGT2B7 [9]; [26]): 98%
inhibition of M3G and M6G formation in HLM (in words) (UGT2B7 [4]): significant inhibition
Cmax,u [10]: 130 nM
ka (first-order absorption rate constant) ([10]; value set for the static model): 0.02
IC50 (UGT2B7 [11]): 6.3 ± 2.6 µM
Ki (UGT2B7 [6]; human, human liver microsomes, probe morphine […] (morphine-3-glucuronide formation), Calculated Ki, Morphine-3-Glucuronide, Ki=IC50/2 assuming competitive inhibition): 4.11 ± 2.24 µM
IC50 (UGT2B7 [6]; human, human liver microsomes, probe morphine […] (morphine-3-glucuronide formation), IC50,u, Morphine-3-Glucuronide formation, corrected for non-specific binding with fu,inc (11-OH-THC fu,inc as surrogate for 11-COOH-THC and 7-OH-CBD)): 0.42 ± 0.23 µM
Ki (UGT2B7 [6]; human, human liver microsomes, probe morphine […] (morphine-6-glucuronide formation), Calculated Ki, Morphine-6-Glucuronide, Ki=IC50/2 assuming competitive inhibition): 3.16 ± 1.32 µM
Ki (UGT2B7 [6]; human, human liver microsomes, probe morphine […] (morphine-6-glucuronide formation), Calculated Ki,u, Morphine-6-Glucuronide, Ki corrected with fu,inc): 0.16 ± 0.07 µM
IC50 (UGT2B7 [6]; human, human liver microsomes, probe morphine […] (morphine-6-glucuronide formation), IC50,u, Morphine-6-Glucuronide formation, corrected for non-specific binding with fu,inc (11-OH-THC fu,inc as surrogate for 11-COOH-THC and 7-OH-CBD)): 0.32 ± 0.13 µM

CCCCCc1cc(O)c2c(c1)OC(C)(C)c1ccc(C)cc1-2 [CBN, cannabinol]
inhibition of UGT2B7-mediated morphine metabolism (overall, in words) (UGT2B7 [3]): no significant inhibitory activity
inhibition at 100 µM (UGT2B7 [9]; [25]): 10%
inhibition at 100 µM (UGT2B7 [9]; [26]): 33%
inhibition of M3G and M6G formation in HLM (in words) (UGT2B7 [4]): did not exhibit appreciable inhibition

CCCCCc1cc(O)c2c(c1)OC(C)(C)[C@@H]1CCC(C)=C[C@@H]21 [THC, Δ^9-tetrahydrocannabinol, reference compound]
Cmax [1, 13]: 30 nM
Cmax [1, 14]: 250 nM
Cmax [1, 15]: 690 nM
Cmax [1, 16]: 990 nM
Cmax [1, 17]: 200 nM
Cmax [1, 18]: 240 nM
unbound fraction (fu,inc) ([2]; HLM): 0.048
inhibition of UGT2B7-mediated morphine metabolism (overall, in words) (UGT2B7 [3]): strong inhibition
inhibition of M3G and M6G formation in HLM (in words) (UGT2B7 [4]): significant inhibition
IC50 (UGT2B7 [5]; [19]): 0.85 ± 0.34 µM
IC50 (UGT2B7 [5]; [20]): 0.34 ± 0.07 µM
Cmax,u [10]: 20 nM
ka (first-order absorption rate constant) ([10]; value set for the static model): 0.02
BP (blood to plasma ratio) ([10]; value set for the static model, ref Schwilke et al., 2009 [55]): 0.4
Ki (UGT2B7 [6]; [21]): 12.2 ± 2.77 µM
Ki (UGT2B7 [6]; [22]): 7.69 ± 1.63 µM
Ki (UGT2B7 [6]; [24]): 0.37 ± 0.08 µM
IC50 (UGT2B7 [6]; [19]): 1.2 ± 0.27 µM
IC50 (UGT2B7 [6]; [20]): 0.74 ± 0.16 µM
IC50 (UGT2B7 [7]): 24 µM and 15 µM

Cc1cn([C@H]2C[C@H](N=[N+]=[N-])[C@@H](CO)O2)c(=O)[nH]c1=O [zidovudine]
increase in zidovudine exposure (UGT2B7 [12]): 1.4 fold

Source: publication PMC10975434 (Pharmaceutics, 2024)
